Assays:
[1] = biological target: T1, Cholecystokinin receptor type A (Homo sapiens, UniProt P32238); format: cell membranes, Membrane; details: 1321-n1; note: in other assays of this panel Not Active means under 50% inhibition at 10 µM
T1 sequence (P32238 whole entry): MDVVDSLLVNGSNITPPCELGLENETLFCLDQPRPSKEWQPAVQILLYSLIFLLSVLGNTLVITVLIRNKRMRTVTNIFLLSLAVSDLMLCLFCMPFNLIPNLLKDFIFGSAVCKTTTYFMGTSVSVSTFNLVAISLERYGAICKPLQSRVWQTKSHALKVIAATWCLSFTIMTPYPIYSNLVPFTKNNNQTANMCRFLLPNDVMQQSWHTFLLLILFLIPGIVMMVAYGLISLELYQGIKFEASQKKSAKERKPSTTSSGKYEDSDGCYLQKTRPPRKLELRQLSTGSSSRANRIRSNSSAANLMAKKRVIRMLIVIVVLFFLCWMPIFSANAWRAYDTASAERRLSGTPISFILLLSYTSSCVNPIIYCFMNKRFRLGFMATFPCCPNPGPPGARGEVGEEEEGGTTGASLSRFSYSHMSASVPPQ

D(4) dopamine receptor = biological target: T2, D(4) dopamine receptor (Homo sapiens, UniProt P21917); assay: DRUGMATRIX: Dopamine D4.2 radioligand binding (ligand: [3H] Spiperone); format: cell membranes, CHO-K1, Membrane; details: Not Active = under 50% inhibition at 10 µM
T2 sequence (P21917 whole entry): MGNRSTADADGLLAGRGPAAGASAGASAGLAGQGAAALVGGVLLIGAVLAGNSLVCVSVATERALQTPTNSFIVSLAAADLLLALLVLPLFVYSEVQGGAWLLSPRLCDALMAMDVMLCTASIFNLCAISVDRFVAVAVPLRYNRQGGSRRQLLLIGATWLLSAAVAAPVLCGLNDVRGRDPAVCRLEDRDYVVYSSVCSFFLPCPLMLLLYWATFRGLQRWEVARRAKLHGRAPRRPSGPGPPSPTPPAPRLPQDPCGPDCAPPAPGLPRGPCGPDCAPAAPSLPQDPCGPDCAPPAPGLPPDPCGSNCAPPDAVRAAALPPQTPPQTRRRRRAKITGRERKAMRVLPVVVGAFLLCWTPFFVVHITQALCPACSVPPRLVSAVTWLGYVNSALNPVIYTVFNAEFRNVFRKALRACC

[2] = biological target: Platelet-activating factor receptor (Homo sapiens, UniProt P25105); format: tissue-based; note: in other assays of this panel Not Active means under 50% inhibition at 10 µM
[3] = biological target: Protein kinase C alpha type (Homo sapiens, UniProt P17252); format: cell-based; details: sf9;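 note: inhibition of PKCalpha kinase activity measured in an enzyme assay with histone as the phosphorylation substrate; in other assays of this panel Not Active means under 50% inhibition at 10 µM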
[4] = biological target: Sigma non-opioid intracellular receptor 1 (Homo sapiens, UniProt Q99720); assay: DRUGMATRIX: Sigma1 radioligand binding (ligand: [3H] Haloperidol); format: cell membranes, Jurkat, Membrane; details: Not Active = under 50% inhibition at 10 µM; for Ki: read-out: Ki
Cytochrome P450 2E1 = Cytochrome P450 2E1 (Homo sapiens, UniProt P05181); details: bti-tn-5b1-4; note: in other assays of this panel Not Active means under 50% inhibition at 10 µM
Melanocortin receptor 3 = Melanocortin receptor 3 (Homo sapiens, UniProt P41968); format: cell membranes, Membrane; details: hek293; note: in other assays of this panel Not Active means under 50% inhibition at 10 µM
Cytochrome P450 1A2 = biological target: T3, Cytochrome P450 1A2 (Homo sapiens, UniProt P05177); details: bti-tn-5b1-4; note: in other assays of this panel Not Active means under 50% inhibition at 10 µM
T3 sequence (P05177 whole entry): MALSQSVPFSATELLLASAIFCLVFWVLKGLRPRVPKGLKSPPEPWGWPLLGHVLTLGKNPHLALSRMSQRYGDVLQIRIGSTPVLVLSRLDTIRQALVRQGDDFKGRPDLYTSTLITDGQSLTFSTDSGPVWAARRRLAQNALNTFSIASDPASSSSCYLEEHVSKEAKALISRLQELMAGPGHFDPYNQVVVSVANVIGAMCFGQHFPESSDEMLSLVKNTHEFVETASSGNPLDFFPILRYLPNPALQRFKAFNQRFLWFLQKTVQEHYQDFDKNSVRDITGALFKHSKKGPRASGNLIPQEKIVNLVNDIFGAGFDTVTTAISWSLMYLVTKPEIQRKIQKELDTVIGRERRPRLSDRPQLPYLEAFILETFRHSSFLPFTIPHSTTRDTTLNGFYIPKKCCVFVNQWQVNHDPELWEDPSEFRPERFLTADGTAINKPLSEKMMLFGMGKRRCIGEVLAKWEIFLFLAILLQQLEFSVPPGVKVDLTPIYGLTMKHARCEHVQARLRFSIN

Sequence of Platelet-activating factor receptor (P25105 whole entry): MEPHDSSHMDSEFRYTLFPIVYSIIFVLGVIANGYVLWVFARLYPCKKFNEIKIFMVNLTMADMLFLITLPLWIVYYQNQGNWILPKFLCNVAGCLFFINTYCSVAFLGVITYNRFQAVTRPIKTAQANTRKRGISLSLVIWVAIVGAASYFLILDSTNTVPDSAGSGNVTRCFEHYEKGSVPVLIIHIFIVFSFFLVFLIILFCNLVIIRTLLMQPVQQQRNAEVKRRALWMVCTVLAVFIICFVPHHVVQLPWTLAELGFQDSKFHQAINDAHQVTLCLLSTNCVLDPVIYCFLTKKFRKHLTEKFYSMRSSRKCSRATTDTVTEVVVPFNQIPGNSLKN
Sequence of Melanocortin receptor 3 (P41968 whole entry): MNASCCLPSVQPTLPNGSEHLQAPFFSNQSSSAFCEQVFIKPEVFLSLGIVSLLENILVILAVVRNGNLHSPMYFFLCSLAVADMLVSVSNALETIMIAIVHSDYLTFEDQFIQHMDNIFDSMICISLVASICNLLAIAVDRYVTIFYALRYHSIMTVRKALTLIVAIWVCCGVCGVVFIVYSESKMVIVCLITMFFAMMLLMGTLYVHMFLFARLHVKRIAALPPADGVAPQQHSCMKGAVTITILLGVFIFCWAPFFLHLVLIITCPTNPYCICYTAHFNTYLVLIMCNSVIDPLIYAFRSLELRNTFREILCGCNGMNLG
Sequence of Sigma non-opioid intracellular receptor 1 (Q99720 whole entry): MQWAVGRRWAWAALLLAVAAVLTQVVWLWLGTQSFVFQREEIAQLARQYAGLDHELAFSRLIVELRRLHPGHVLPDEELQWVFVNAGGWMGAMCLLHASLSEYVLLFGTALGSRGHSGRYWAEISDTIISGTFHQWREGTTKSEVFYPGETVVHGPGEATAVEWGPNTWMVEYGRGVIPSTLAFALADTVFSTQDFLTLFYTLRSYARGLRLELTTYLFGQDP
Sequence of Cytochrome P450 2E1 (P05181 whole entry): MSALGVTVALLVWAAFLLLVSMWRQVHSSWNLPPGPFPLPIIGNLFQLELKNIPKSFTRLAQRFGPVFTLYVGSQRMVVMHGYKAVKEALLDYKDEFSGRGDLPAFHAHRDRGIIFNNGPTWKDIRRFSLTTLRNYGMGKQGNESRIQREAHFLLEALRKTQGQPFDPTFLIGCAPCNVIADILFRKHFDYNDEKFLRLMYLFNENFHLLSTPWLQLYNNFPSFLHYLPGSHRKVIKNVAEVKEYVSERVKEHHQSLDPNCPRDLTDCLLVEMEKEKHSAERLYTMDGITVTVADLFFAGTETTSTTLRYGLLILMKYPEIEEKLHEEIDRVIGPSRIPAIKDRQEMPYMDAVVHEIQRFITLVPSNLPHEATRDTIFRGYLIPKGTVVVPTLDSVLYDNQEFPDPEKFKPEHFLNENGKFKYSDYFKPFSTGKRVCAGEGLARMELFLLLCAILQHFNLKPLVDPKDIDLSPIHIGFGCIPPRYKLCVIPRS

SMILES | IC50 [1] | IC50 (D(4) dopamine receptor; cho-k1) | IC50 [2] | IC50 [3] | IC50 ([4]; jurkat) | IC50 (Cytochrome P450 2E1) | Ki (Cytochrome P450 2E1) | IC50 (Melanocortin receptor 3) | IC50 (Cytochrome P450 1A2) | Ki (Cytochrome P450 1A2) | IC50 ([4]; read-out: IC50) [nM] | Ki [4] [nM] | IC50 (D(4) dopamine receptor; read-out: IC50) [nM] | Ki (D(4) dopamine receptor; read-out: Ki) [nM]
CC(=N)S [THIOACETAMIDE] | Not Active | Not Active | Not Active | Not Active | Not Active | Not Active | Not Active | Not Active | Not Active | Not Active |  |  |  | 
O=C1C[C@@H]2OCC=C3CN4CC[C@]56c7ccccc7N1[C@H]5[C@H]2[C@H]3C[C@H]46 [STRYCHNINE] | Not Active | Not Active | Not Active | Not Active | Not Active | Not Active | Not Active | Not Active | Not Active | Not Active |  |  |  | 
Nc1ccc(S(=O)(=O)NC(=O)c2ccccc2)cc1 [SULFABENZAMIDE] | Not Active | Not Active | Not Active | Not Active | Not Active | Not Active | Not Active | Not Active | Not Active | Not Active |  |  |  | 
CC(=O)OCC(COC(C)=O)OC(C)=O [TRIACETIN] | Not Active | Not Active | Not Active | Not Active | Not Active | Not Active | Not Active | Not Active | Not Active | Not Active |  |  |  | 
CCCCC(=O)N(Cc1ccc(-c2ccccc2-c2nnn[nH]2)cc1)[C@H](C(=O)O)C(C)C | Not Active | Not Active | Not Active | Not Active | Not Active | Not Active | Not Active | Not Active | Not Active | Not Active |  |  |  | 
OCCOCCN1CCN(C2=Nc3ccccc3Sc3ccccc32)CC1 [QUETIAPINE] | Not Active | Not Active | Not Active | Not Active |  | Not Active | Not Active | Not Active | Not Active | Not Active | 2290 | 964 |  | 
CC1CCC(NC(=O)N(CCCl)N=O)CC1 (stereo not drawn) [SEMUSTINE] | Not Active | Not Active | Not Active | Not Active | Not Active | Not Active | Not Active | Not Active | Not Active | Not Active |  |  |  | 
Oc1ccc2c3c1O[C@H]1[C@@H](O)CC[C@@]4(O)[C@@H](C2)N(CC2CCC2)CC[C@]314 [NALBUPHINE] | Not Active | Not Active | Not Active | Not Active | Not Active |  |  | Not Active |  |  |  |  |  | 
Clc1ccc(COC(Cn2ccnc2)c2ccc(Cl)cc2Cl)c(Cl)c1 (stereo not drawn) [MICONAZOLE] | Not Active |  | Not Active | Not Active | Not Active | Not Active | Not Active |  | Not Active | Not Active |  |  | 15300 | 5350
O=C(O)CCCCC1CCSS1 (stereo not drawn) [LIPOIC ACID, ALPHA] | Not Active | Not Active | Not Active | Not Active | Not Active | Not Active | Not Active | Not Active | Not Active | Not Active |  |  |  | 
CCCCCCCCNC(C)C(O)c1ccc(SC(C)C)cc1 (stereo not drawn) [SULOCTIDIL] | Not Active | Not Active | Not Active | Not Active |  | Not Active | Not Active | Not Active |  |  | 117 | 49.3 |  | 
COC(=O)[C@H]1[C@H]2C[C@@H]3c4[nH]c5cc(OC)ccc5c4CCN3C[C@H]2C[C@@H](OC(=O)c2cc(OC)c(OC)c(OC)c2)[C@@H]1OC [RESERPINE] | Not Active | Not Active | Not Active | Not Active | Not Active | Not Active | Not Active | Not Active | Not Active | Not Active |  |  |  | 
O=c1[nH]c(=O)n(C2CCCO2)cc1F (stereo not drawn) [TEGAFUR] | Not Active | Not Active | Not Active | Not Active | Not Active | Not Active | Not Active | Not Active | Not Active | Not Active |  |  |  | 
CC(C)NC[C@H](O)COc1cccc2ccccc12 [LEVOPROPRANOLOL] | Not Active | Not Active | Not Active | Not Active |  | Not Active | Not Active | Not Active | Not Active | Not Active | 6660 | 2800 |  | 
CN1[C@@H]2CC[C@H]1C[C@@H](OC(c1ccccc1)c1ccccc1)C2 [BENZTROPINE] | Not Active | Not Active | Not Active | Not Active |  | Not Active | Not Active | Not Active | Not Active | Not Active |  |  |  | 
Cc1ccc(C(=O)c2ccc(CC(=O)O)n2C)cc1 [TOLMETIN] | Not Active | Not Active | Not Active | Not Active | Not Active | Not Active | Not Active | Not Active | Not Active | Not Active |  |  |  | 
C[S+]([O-])c1ccc(-c2nc(-c3ccncc3)c(-c3ccc(F)cc3)[nH]2)cc1 (stereo not drawn) [SB-203580] | Not Active | Not Active | Not Active | Not Active | Not Active | Not Active | Not Active | Not Active |  |  |  |  |  | 
CN1CCN(C2=Nc3cc(Cl)ccc3Nc3ccccc32)CC1 [CLOZAPINE] | Not Active |  | Not Active | Not Active | Not Active | Not Active | Not Active | Not Active | Not Active | Not Active |  |  |  | 
C[C@]12C=CC(=O)C=C1CC[C@@H]1[C@@H]2C(=O)C[C@@]2(C)[C@H]1CC[C@]2(O)C(=O)CO [PREDNISONE] | Not Active | Not Active | Not Active | Not Active | Not Active |  |  | Not Active |  |  |  |  |  | 
CC(C)NC[C@@H](O)COc1cccc2ccccc12 [DEXPROPRANOLOL] | Not Active | Not Active | Not Active | Not Active |  | Not Active | Not Active | Not Active | Not Active | Not Active | 3970 | 1670 |  | 
CN1CCN(CCCN2c3ccccc3Sc3ccc(C(F)(F)F)cc32)CC1 [TRIFLUOPERAZINE] | Not Active | Not Active | Not Active | Not Active | Not Active | Not Active | Not Active | Not Active |  |  |  |  |  | 
O=C(O)COc1ccc(C(=O)c2cccs2)c(Cl)c1Cl | Not Active | Not Active | Not Active | Not Active | Not Active | Not Active | Not Active | Not Active | Not Active | Not Active |  |  |  | 
C[N+](C)(C)CCOC(=O)CCC(=O)OCC[N+](C)(C)C.[Cl-].[Cl-] [SUCCINYLCHOLINE CHLORIDE] | Not Active | Not Active | Not Active | Not Active | Not Active | Not Active | Not Active | Not Active | Not Active | Not Active |  |  |  | 
